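Protocol summary: plate cells (96-well), add compound at 5 concentrations, incubate 48 h, interpolate endpoints linearly. Abbreviation: GI50, concentration required for 50% inhibition of growth.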 Calls of active or inactive are those of the source. No stated cut-off is given here; in the data, active = GI50 up to about 1.1 µM and inactive = higher.
How the values were obtained:
Test in all cases: NCI-60 cell line screen, 48 h
A549 = tested on: A549
CCRF-CEM = tested on: CCRF-CEM
EKVX = tested on: EKVX
HCC 2998 = tested on: HCC 2998
HOP-62 = tested on: HOP-62
M14 = tested on: M14
Malme-3M = tested on: Malme-3M
NCI-H23 = tested on: NCI-H23
NCI-H522 = tested on: NCI-H522
OVCAR-3 = tested on: OVCAR-3
SF-268 = tested on: SF-268
SF-295 = tested on: SF-295
SK-MEL-28 = tested on: SK-MEL-28
SK-MEL-2 = tested on: SK-MEL-2
SK-OV-3 = tested on: SK-OV-3
SR = tested on: SR
SW-620 = tested on: SW-620
UO-31 = tested on: UO-31
PC-3 = tested on: PC-3
MDA-MB-435 = tested on: MDA-MB-435

Measured: GI50

CO/C(=N\N=C\c1ccc(Cl)cc1)c1ccncc1
inactive: A549 > 100 µM | CCRF-CEM > 100 µM | EKVX > 100 µM | HCC 2998 > 100 µM | HOP-62 > 100 µM | M14 > 100 µM | Malme-3M > 100 µM | NCI-H23 > 100 µM | NCI-H522 > 100 µM | OVCAR-3 > 100 µM | SF-268 > 100 µM | SF-295 > 100 µM | SK-MEL-28 > 100 µM | SK-MEL-2 > 100 µM | SK-OV-3 > 100 µM | SR > 100 µM | SW-620 > 100 µM | UO-31 > 100 µM

S=C1C=C(c2ccccc2)Sc2ccccc2N1
inactive: A549 > 100 µM | CCRF-CEM 67.5 µM | EKVX > 100 µM | HOP-62 41.4 µM | M14 57.9 µM | Malme-3M > 100 µM | NCI-H23 > 100 µM | NCI-H522 44.5 µM | OVCAR-3 > 100 µM | PC-3 > 100 µM | SF-268 > 100 µM | SF-295 > 100 µM | SK-MEL-28 > 100 µM | SK-OV-3 > 100 µM | SR > 100 µM | UO-31 > 100 µM

CN(C)CC1CN=C(N)O1 (centres undefined)
inactive: A549 > 100 µM | CCRF-CEM > 100 µM | EKVX > 100 µM | HCC 2998 > 100 µM | HOP-62 > 100 µM | M14 > 100 µM | MDA-MB-435 > 100 µM | Malme-3M > 100 µM | NCI-H23 > 100 µM | NCI-H522 > 100 µM | OVCAR-3 > 100 µM | PC-3 > 100 µM | SF-268 > 100 µM | SF-295 > 100 µM | SK-MEL-28 > 100 µM | SK-MEL-2 > 100 µM | SK-OV-3 > 100 µM | SW-620 > 100 µM | UO-31 > 100 µM

CC1(C)OCC=CCO1
inactive: A549 > 100 µM | CCRF-CEM 62.5 µM | EKVX > 100 µM | HCC 2998 > 100 µM | HOP-62 > 100 µM | M14 > 100 µM | MDA-MB-435 > 100 µM | Malme-3M > 100 µM | NCI-H23 > 100 µM | NCI-H522 69.8 µM | OVCAR-3 59.7 µM | PC-3 > 100 µM | SF-268 > 100 µM | SF-295 > 100 µM | SK-MEL-28 > 100 µM | SK-MEL-2 > 100 µM | SK-OV-3 > 100 µM | SW-620 > 100 µM | UO-31 > 100 µM

C#CCOCn1cnc2ncnc(Cl)c21
inactive: A549 > 100 µM | CCRF-CEM > 100 µM | EKVX > 100 µM | HCC 2998 > 100 µM | HOP-62 > 100 µM | M14 > 100 µM | Malme-3M > 100 µM | NCI-H23 > 100 µM | NCI-H522 > 100 µM | OVCAR-3 > 100 µM | SF-268 > 100 µM | SF-295 > 100 µM | SK-MEL-28 > 100 µM | SK-MEL-2 > 100 µM | SK-OV-3 > 100 µM | SR > 100 µM | SW-620 > 100 µM | UO-31 > 100 µM

CC(C)(C)OC(=O)NCCC(=O)NC1(c2cc3ccccc3s2)CCCCC1
inactive: A549 15.9 µM | CCRF-CEM 12.5 µM | EKVX 20.9 µM | HCC 2998 23.2 µM | HOP-62 18.4 µM | M14 18.4 µM | MDA-MB-435 17.3 µM | Malme-3M 21.5 µM | NCI-H23 15.5 µM | NCI-H522 12.5 µM | OVCAR-3 15.6 µM | PC-3 18.5 µM | SF-295 18.4 µM | SK-MEL-28 19.1 µM | SK-MEL-2 18 µM | SK-OV-3 24.4 µM | SW-620 22.6 µM | UO-31 16.1 µM

Cc1n[nH]c(=O)n1N=C(c1ccccc1)c1ccccc1
inactive: A549 > 100 µM | CCRF-CEM > 100 µM | EKVX > 100 µM | HOP-62 > 100 µM | M14 > 100 µM | MDA-MB-435 > 100 µM | Malme-3M 24.9 µM | NCI-H23 > 100 µM | NCI-H522 > 100 µM | OVCAR-3 > 100 µM | PC-3 > 100 µM | SF-268 > 100 µM | SF-295 > 100 µM | SK-MEL-28 > 100 µM | SK-MEL-2 > 100 µM | SW-620 > 100 µM | UO-31 > 100 µM

Cc1ccc(NC(=O)c2cc3ccccc3c(/N=N/c3cc(S(=O)(=O)O)ccc3O)c2O)c(C)c1
inactive: A549 22.3 µM | CCRF-CEM 3.3 µM | EKVX 19.6 µM | HOP-62 13.1 µM | M14 7.43 µM | MDA-MB-435 19.7 µM | Malme-3M 16.4 µM | NCI-H23 16.6 µM | NCI-H522 25.4 µM | OVCAR-3 3.26 µM | PC-3 14.5 µM | SF-268 18.6 µM | SF-295 10 µM | SK-MEL-28 18.7 µM | SK-MEL-2 16 µM | SK-OV-3 20 µM | SW-620 10.9 µM | UO-31 4.44 µM

CC(C)COC(=O)N1N=NC2C3CC(=O)C(O3)C21 (centres undefined)
inactive: A549 > 100 µM | CCRF-CEM > 100 µM | EKVX > 100 µM | HCC 2998 > 100 µM | HOP-62 > 100 µM | M14 > 100 µM | Malme-3M > 100 µM | NCI-H23 > 100 µM | NCI-H522 > 100 µM | OVCAR-3 > 100 µM | SF-268 > 100 µM | SF-295 > 100 µM | SK-MEL-28 > 100 µM | SK-MEL-2 > 100 µM | SK-OV-3 > 100 µM | SR > 100 µM | SW-620 > 100 µM | UO-31 > 100 µM

CC1(C)CCSC(/C=C/c2ccccc2)=N1
inactive: A549 25.2 µM | CCRF-CEM 21.5 µM | EKVX 31.6 µM | HOP-62 16.4 µM | M14 13.2 µM | MDA-MB-435 17.9 µM | Malme-3M 11.8 µM | NCI-H23 17.8 µM | NCI-H522 17 µM | OVCAR-3 15.2 µM | PC-3 16.6 µM | SF-268 30.8 µM | SF-295 19.9 µM | SK-MEL-28 19.3 µM | SK-MEL-2 14.6 µM | SK-OV-3 43.9 µM | SW-620 19.1 µM

CN(C)c1ccc(C=C2C(=O)OC(C)(C)OC2=O)cc1Br
inactive: A549 > 100 µM | CCRF-CEM > 100 µM | EKVX > 100 µM | HCC 2998 > 100 µM | HOP-62 > 100 µM | M14 > 100 µM | Malme-3M > 100 µM | NCI-H23 > 100 µM | NCI-H522 > 100 µM | OVCAR-3 > 100 µM | SF-268 > 100 µM | SF-295 > 100 µM | SK-MEL-28 > 100 µM | SK-MEL-2 > 100 µM | SK-OV-3 > 100 µM | SR 59.6 µM | SW-620 > 100 µM | UO-31 > 100 µM

O=C1NC(=S)NC(=O)C1=Cc1ccc(-c2ccccc2)cc1
inactive: A549 > 100 µM | CCRF-CEM 36.3 µM | EKVX > 100 µM | HCC 2998 > 100 µM | HOP-62 > 100 µM | M14 > 100 µM | MDA-MB-435 > 100 µM | Malme-3M > 100 µM | NCI-H23 > 100 µM | OVCAR-3 > 100 µM | PC-3 > 100 µM | SF-268 > 100 µM | SF-295 > 100 µM | SK-MEL-2 > 100 µM | SK-OV-3 > 100 µM | SW-620 > 100 µM | UO-31 > 100 µM

CC(C)(C1=NC(C(C)(C)C)CO1)C1=N[C@@H](C(C)(C)C)CO1 (some centres undefined)
inactive: A549 > 100 µM | CCRF-CEM > 100 µM | EKVX > 100 µM | HCC 2998 > 100 µM | HOP-62 > 100 µM | M14 > 100 µM | Malme-3M > 100 µM | NCI-H23 > 100 µM | NCI-H522 > 100 µM | OVCAR-3 > 100 µM | SF-268 > 100 µM | SF-295 > 100 µM | SK-MEL-28 > 100 µM | SK-MEL-2 > 100 µM | SK-OV-3 > 100 µM | SR > 100 µM | SW-620 > 100 µM | UO-31 > 100 µM

CC(C)n1c(=O)n(-c2ccccc2)n(C(C)(C)C)c1=O
inactive: A549 > 100 µM | CCRF-CEM > 100 µM | EKVX > 100 µM | HCC 2998 > 100 µM | HOP-62 > 100 µM | M14 > 100 µM | Malme-3M > 100 µM | NCI-H23 83.2 µM | OVCAR-3 > 100 µM | PC-3 > 100 µM | SF-295 > 100 µM | SK-MEL-28 > 100 µM | SK-MEL-2 > 100 µM | SK-OV-3 > 100 µM | SR 58.5 µM | SW-620 > 100 µM | UO-31 > 100 µM

CCc1cccc(CC)c1NC1=CC(=O)C(=O)c2ccccc21
inactive: A549 18.6 µM | CCRF-CEM > 100 µM | EKVX 14.1 µM | HCC 2998 15 µM | HOP-62 19.5 µM | M14 13.5 µM | Malme-3M 17.9 µM | NCI-H23 1.49 µM | NCI-H522 14.1 µM | OVCAR-3 2.84 µM | SF-268 22.5 µM | SF-295 13 µM | SK-MEL-28 15.6 µM | SK-MEL-2 14.6 µM | SK-OV-3 31.6 µM | SR 29.9 µM | SW-620 16.5 µM | UO-31 18.7 µM

CCOC(=O)C(C(=O)OCC)c1ccc([N+](=O)[O-])o1
inactive: A549 21.5 µM | CCRF-CEM 2.53 µM | EKVX 18.7 µM | HCC 2998 17.3 µM | HOP-62 > 50 µM | M14 13.7 µM | Malme-3M 6.73 µM | NCI-H23 17.6 µM | NCI-H522 1.74 µM | OVCAR-3 5.73 µM | SF-268 25.4 µM | SF-295 20.6 µM | SK-MEL-28 14.1 µM | SK-MEL-2 18.6 µM | SK-OV-3 62.2 µM | SR 6.93 µM | SW-620 3.39 µM | UO-31 15.6 µM

Source: ChEMBL document CHEMBL1201862, “PubChem BioAssay data set” (2004)
